According to ChEMBL document CHEMBL1201862, “PubChem BioAssay data set” (2004):
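Values below derive from 48-hour exposures of cells grown in 96-well plates, with endpoints linearly interpolated between the two concentrations bracketing the appropriate inhibition level. GI50: concentration for 50% inhibition of growth.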 The source made the active and inactive calls. Cut-off read from the data, not from the text of the source: active = GI50 up to about 1.1 µM and inactive = higher.

Key:
Experiment in all cases: NCI anticancer screen, dose series, 48 h
MDA-MB-231 = test system: MDA-MB-231
A498 = test system: A498
SK-OV-3 = test system: SK-OV-3
ACHN = test system: ACHN
NCI-H23 = test system: NCI-H23
HT-29 = test system: HT-29
HOP-92 = test system: HOP-92
M14 = test system: M14
BT-549 = test system: BT-549
SF-539 = test system: SF-539
Hs-578T = test system: Hs-578T
SN12C = test system: SN12C
TK-10 = test system: TK-10
MDA-MB-435 = test system: MDA-MB-435
DU-145 = test system: DU-145
UACC-257 = test system: UACC-257
OVCAR-8 = test system: OVCAR-8
IGROV-1 = test system: IGROV-1
HL-60 = test system: HL-60

CCNc1ccc2c(c1)C(=O)N(OS(C)(=O)=O)C2=O
GI50 (MDA-MB-231): > 100 µM (inactive)
GI50 (A498): > 100 µM (inactive)
GI50 (SK-OV-3): > 100 µM (inactive)
GI50 (ACHN): 37.7 µM (inactive)
GI50 (NCI-H23): > 100 µM (inactive)
GI50 (HT-29): > 100 µM (inactive)
GI50 (HOP-92): > 100 µM (inactive)
GI50 (M14): 42.2 µM (inactive)
GI50 (BT-549): 71.4 µM (inactive)
GI50 (SF-539): 22.4 µM (inactive)
GI50 (Hs-578T): > 100 µM (inactive)
GI50 (SN12C): > 100 µM (inactive)
GI50 (TK-10): > 100 µM (inactive)
GI50 (MDA-MB-435): > 100 µM (inactive)
GI50 (DU-145): > 100 µM (inactive)
GI50 (UACC-257): > 100 µM (inactive)
GI50 (OVCAR-8): > 100 µM (inactive)

NS(=O)(=O)c1nnc(NS(=O)(=O)c2ccc(Cl)cc2)s1
GI50 (MDA-MB-231): > 100 µM (inactive)
GI50 (A498): > 100 µM (inactive)
GI50 (SK-OV-3): > 100 µM (inactive)
GI50 (ACHN): > 100 µM (inactive)
GI50 (NCI-H23): > 100 µM (inactive)
GI50 (HT-29): > 100 µM (inactive)
GI50 (HOP-92): > 100 µM (inactive)
GI50 (M14): > 100 µM (inactive)
GI50 (BT-549): > 100 µM (inactive)
GI50 (Hs-578T): > 100 µM (inactive)
GI50 (SN12C): > 100 µM (inactive)
GI50 (TK-10): > 100 µM (inactive)
GI50 (MDA-MB-435): > 100 µM (inactive)
GI50 (DU-145): > 100 µM (inactive)
GI50 (UACC-257): > 100 µM (inactive)
GI50 (OVCAR-8): > 100 µM (inactive)

C[C@H](NC1=CC(=O)C(N[C@@H](C)[C@H](O)c2ccccc2)=CC1=O)[C@H](O)c1ccccc1
GI50 (MDA-MB-231): 76.2 µM (inactive)
GI50 (A498): > 100 µM (inactive)
GI50 (SK-OV-3): 69 µM (inactive)
GI50 (ACHN): 96.6 µM (inactive)
GI50 (NCI-H23): 67 µM (inactive)
GI50 (HT-29): 27.3 µM (inactive)
GI50 (IGROV-1): > 100 µM (inactive)
GI50 (HOP-92): > 100 µM (inactive)
GI50 (M14): > 100 µM (inactive)
GI50 (BT-549): 52.8 µM (inactive)
GI50 (SF-539): 63.8 µM (inactive)
GI50 (Hs-578T): 37.2 µM (inactive)
GI50 (SN12C): > 100 µM (inactive)
GI50 (HL-60): > 100 µM (inactive)
GI50 (TK-10): 55.7 µM (inactive)
GI50 (MDA-MB-435): 81.5 µM (inactive)
GI50 (DU-145): > 100 µM (inactive)
GI50 (UACC-257): > 100 µM (inactive)
GI50 (OVCAR-8): > 100 µM (inactive)

O=[N+]([O-])c1ccc(CSC2=C(c3ccc(Cl)cc3)S/C(=C3\SC(SCc4ccc([N+](=O)[O-])cc4)=C(c4ccc(Cl)cc4)S3)S2)cc1
GI50 (MDA-MB-231): > 100 µM (inactive)
GI50 (A498): > 100 µM (inactive)
GI50 (SK-OV-3): > 100 µM (inactive)
GI50 (ACHN): > 100 µM (inactive)
GI50 (NCI-H23): > 100 µM (inactive)
GI50 (HT-29): > 100 µM (inactive)
GI50 (IGROV-1): > 100 µM (inactive)
GI50 (HOP-92): < 0.01 µM (active)
GI50 (M14): > 100 µM (inactive)
GI50 (BT-549): > 100 µM (inactive)
GI50 (SF-539): > 100 µM (inactive)
GI50 (Hs-578T): > 100 µM (inactive)
GI50 (SN12C): > 100 µM (inactive)
GI50 (TK-10): > 100 µM (inactive)
GI50 (MDA-MB-435): > 100 µM (inactive)
GI50 (DU-145): > 100 µM (inactive)
GI50 (UACC-257): > 100 µM (inactive)
GI50 (OVCAR-8): > 100 µM (inactive)

O=C1NC(Cc2c[nH]c3ccccc23)C(=O)N2C(C3CCCCC3)c3[nH]c4ccccc4c3C[C@@H]12 (stereo partly specified)
GI50 (MDA-MB-231): 15.1 µM (inactive)
GI50 (A498): 15.2 µM (inactive)
GI50 (ACHN): 17.7 µM (inactive)
GI50 (NCI-H23): 16.8 µM (inactive)
GI50 (HT-29): 14.9 µM (inactive)
GI50 (IGROV-1): 13.8 µM (inactive)
GI50 (HOP-92): 15.4 µM (inactive)
GI50 (M14): 13.2 µM (inactive)
GI50 (BT-549): 14.9 µM (inactive)
GI50 (Hs-578T): 2.18 µM (inactive)
GI50 (SN12C): 8.26 µM (inactive)
GI50 (HL-60): 13.4 µM (inactive)
GI50 (TK-10): 8.15 µM (inactive)
GI50 (MDA-MB-435): 11 µM (inactive)
GI50 (DU-145): 24.3 µM (inactive)
GI50 (UACC-257): 12.1 µM (inactive)
GI50 (OVCAR-8): 14.6 µM (inactive)

O=C(CCc1cccc(O)c1)NCCc1ccc(O)cc1
GI50 (MDA-MB-231): > 100 µM (inactive)
GI50 (A498): > 100 µM (inactive)
GI50 (SK-OV-3): > 100 µM (inactive)
GI50 (ACHN): 95.9 µM (inactive)
GI50 (NCI-H23): > 100 µM (inactive)
GI50 (HT-29): > 100 µM (inactive)
GI50 (IGROV-1): > 100 µM (inactive)
GI50 (HOP-92): > 100 µM (inactive)
GI50 (M14): > 100 µM (inactive)
GI50 (BT-549): > 100 µM (inactive)
GI50 (SF-539): > 100 µM (inactive)
GI50 (Hs-578T): > 100 µM (inactive)
GI50 (SN12C): > 100 µM (inactive)
GI50 (HL-60): > 100 µM (inactive)
GI50 (TK-10): > 100 µM (inactive)
GI50 (MDA-MB-435): > 100 µM (inactive)
GI50 (DU-145): > 100 µM (inactive)
GI50 (UACC-257): > 100 µM (inactive)
GI50 (OVCAR-8): > 100 µM (inactive)
